From ChEMBL document CHEMBL1136897, “Predictive models of Cannabinoid-1 receptor antagonists derived from diverse classes” (Bioorg Med Chem Lett, 2009) come the findings set out here.

SMILES strings stand for the structures. pIC50: −log10 of the molar value.

In the experiment the target is Cannabinoid receptor 1 (Homo sapiens, UniProt P21554). Type of experiment: functional.
Cannabinoid receptor 1, sequence (P21554 whole entry): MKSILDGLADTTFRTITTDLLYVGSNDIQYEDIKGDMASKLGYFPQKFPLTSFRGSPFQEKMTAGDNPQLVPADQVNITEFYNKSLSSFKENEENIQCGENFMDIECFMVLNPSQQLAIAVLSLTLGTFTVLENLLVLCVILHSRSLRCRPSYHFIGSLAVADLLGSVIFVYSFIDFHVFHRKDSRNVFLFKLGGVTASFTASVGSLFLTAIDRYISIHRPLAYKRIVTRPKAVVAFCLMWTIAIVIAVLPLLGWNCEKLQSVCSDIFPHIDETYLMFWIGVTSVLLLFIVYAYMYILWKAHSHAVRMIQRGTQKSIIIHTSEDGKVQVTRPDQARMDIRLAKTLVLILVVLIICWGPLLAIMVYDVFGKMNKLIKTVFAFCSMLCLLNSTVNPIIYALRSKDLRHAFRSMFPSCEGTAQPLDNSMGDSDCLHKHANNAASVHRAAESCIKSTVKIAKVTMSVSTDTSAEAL
Take `CC(=O)Nc1cc(=O)n(C)c2nc(-c3ccc(Cl)cc3Cl)c(-c3ccc(Cl)cc3)cc12`: the pIC50 was 6.95. Consider `CC(=O)Nc1c(C#N)c(=O)n(C)c2nc(-c3ccc(Cl)cc3Cl)c(-c3ccc(Cl)cc3)cc12`, for which the pIC50 was 7.45. Then `CC(NC(=O)C(C)(C)Oc1cccc(Cl)c1)C(Cc1ccc(Cl)cc1)c1ccccc1` (stereo not drawn), with 8.82. `CC(C)NC(=O)N1CCN(C(c2ccc(Cl)cc2)c2ccccc2C(F)(F)F)CC1` (stereo not drawn) gave a pIC50 of 5.18. Then `CC(NS(=O)(=O)Cc1ccccc1)C(Cc1ccc(Cl)cc1)c1cccc(C#N)c1` (stereo not drawn), with 7.68; and `CC(NS(=O)(=O)C(C)(C)C)C(Cc1ccc(Cl)cc1)c1cccc(C#N)c1` (stereo not drawn), with 5.77; and `CC(NS(C)(=O)=O)C(Cc1ccc(Cl)cc1)c1cccc(C#N)c1` (stereo not drawn), with 5.69.

With `CC(C)NC(=O)N1CCN(C(c2ccc(Cl)cc2)c2ccccc2Cl)CC1` (stereo not drawn), the pIC50 was 6.40. With `Cc1ccccc1C(c1ccc(Cl)cc1)N1CCN(C(=O)NC(C)C)CC1` (stereo not drawn), the pIC50 was 5.66. For `CC(NC(=O)C(C)(C)Oc1cc(F)cc(F)c1)C(Cc1ccc(Cl)cc1)c1ccccc1` (stereo not drawn) the value was 8.95. Regarding `CC(C)NC(=O)N1CCN(C(c2ccc(Br)cc2)c2ccccc2Cl)CC1` (stereo not drawn), the negative logarithm of the IC50 (pIC50) was 6.11. For `O=C(NCC1CCC1)N1CCN(C(c2ccc(Cl)cc2)c2ccc(Cl)cc2)CC1` the value was 5.46. Compound `CC(NC(=O)C(C)(C)Oc1ccc(Cl)cn1)C(Cc1ccc(Cl)cc1)c1ccccc1` (stereo not drawn) had a negative-log IC50 (pIC50) of 8.88.

In general, pIC50 refers to the negative decadic logarithm of the IC50, by convention in mol/L. The low end stands for a high IC50, the high end for a low IC50.
